In patent US10604476B2, “Fluorinated amide derivatives and their uses as therapeutic agents” (Trillium Therapeutics Inc., priority 2015, dated 2020):

Tests used:
[1] = system: mEC-HC slice from KA-treated rats; assay: Spontaneously bursting hippocampal slice in vitro model; type: cell-based, rat; conditions: 100 μM, FIG. 2
From the text: An in vitro screen uses the medial entorhinal cortex-hippocampal (mEC-HC) slice obtained from kainic acid (KA)-treated animals to identify compounds that may be effective in pharmacoresistant epilepsy. Systemic KA treatment in rats is an accepted model of temporal lobe epilepsy (TLE), where an initial insult results in status epilepticus and is followed by a sustained latent period that subsequently gives way to the development of spontaneous seizures. […] Moreover, the mEC-HC slices obtained from KA-treated rats are hyperexcitable in normal artificial cerebrospinal fluid (ACSF) solution as early as one week following KA-induced SE. Thus, this test screens investigational compounds for any potential efficacy against pharmacoresistant TLE. […]
Kainic acid administration/low dose: Animals were treated with Kainic Acid (Tocris, 0222) following a modified protocol described previously (Hellier et al 1998). Seizure activity is scored throughout KA administration using the Racine scale (Racine, 1972). […] Once stage 4-5 seizures are observed, injections cease and the number and stage of seizures observed are recorded on seizure score sheets. The animals are observed and seizures recorded for a minimum of 3.5 h. […]

[2] = system: Metrazol seizure threshold; assay: Timed intravenous infusion of Metrazol (iv Met) in mouse; type: in vivo; conditions: FIG. 1, p<0.001
Description: The iv-Met test provides a measure of a test substance's ability to raise or lower seizure threshold. Two doses of the test compound are usually employed in this test, the MES ED50 and the TD50 determined following ip quantification testing in mice. Randomly selected mice are injected intraperitoneally 2 minutes apart with either the vehicle or the two test drug doses, maintaining the same order of dosing until 30 mice have been injected. At the previously determined TPE, 0.5% heparinized Metrazol solution is infused at a constant rate of 0.34 ml/min into a lateral tail vein of an unrestrained mouse. Infusion is by means of a Sage syringe pump (model 341 A) and a 10 ml B-D plastic syringe connected to a length of No 20 P.E. tubing. A 27 gauge stainless steel needle with the hub removed is connected to the tubing and inserted into a vein, bevel side up and secured to the tail by a narrow piece of adhesive tape. For the placement of the needle, the mouse is restrained in a cone shaped device with only the tail exposed. […] The time in seconds from the start of the infusion to the appearance of the “first twitch” and the onset of sustained clonus is recorded. The times to each endpoint are converted to mg/kg of Metrazol for each mouse as follows: The mean and standard error for each of the 3 groups and the significance of the difference between the test groups and the control are calculated.

C[C@@H](Oc1cc(Cl)cc(C(F)(F)F)c1)C(N)=O [I(D), (2R)-2-[3-chloro-5-(trifluoromethyl)-phenoxy]propanamide]
network hyperexcitability (spontaneous burst activity and duration) [1]: effectively suppressed
seizure threshold (time to twitch, time to clonus, total dose of pentylenetetrazol to first twitch or clonus) [2]: elevate seizure threshold
